Active and inactive are the calls of the source. The rule behind the calls is not given here.
Assays:
Acetylcholinesterase = Acetylcholinesterase (Homo sapiens, UniProt P22303); assay: Inhibition of human AChE pre-incubated for 10 mins before acetylthiocholine iodide substrate addition
Bacillus subtilis = assay: Antimicrobial activity against Bacillus subtilis DSM 347 incubated for 5 hrs by resazurin dye based assay; format: functional, organism-based; conditions: DSM 347, 5 h
[1] = Toxicity against human KIF5 cells incubated for 24 hrs by CellTiter Blue cell viability assay; format: cell-based
Candida albicans = assay: Antimicrobial activity against Candida albicans DSM 1386 incubated for 5 hrs by resazurin dye based assay; format: functional, organism-based
Xanthomonas campestris = assay: Antimicrobial activity against Xanthomonas campestris DSM 2405 incubated for 6 hrs by resazurin dye based assay; format: functional, organism-based

Acetylcholinesterase, sequence (P22303 whole entry): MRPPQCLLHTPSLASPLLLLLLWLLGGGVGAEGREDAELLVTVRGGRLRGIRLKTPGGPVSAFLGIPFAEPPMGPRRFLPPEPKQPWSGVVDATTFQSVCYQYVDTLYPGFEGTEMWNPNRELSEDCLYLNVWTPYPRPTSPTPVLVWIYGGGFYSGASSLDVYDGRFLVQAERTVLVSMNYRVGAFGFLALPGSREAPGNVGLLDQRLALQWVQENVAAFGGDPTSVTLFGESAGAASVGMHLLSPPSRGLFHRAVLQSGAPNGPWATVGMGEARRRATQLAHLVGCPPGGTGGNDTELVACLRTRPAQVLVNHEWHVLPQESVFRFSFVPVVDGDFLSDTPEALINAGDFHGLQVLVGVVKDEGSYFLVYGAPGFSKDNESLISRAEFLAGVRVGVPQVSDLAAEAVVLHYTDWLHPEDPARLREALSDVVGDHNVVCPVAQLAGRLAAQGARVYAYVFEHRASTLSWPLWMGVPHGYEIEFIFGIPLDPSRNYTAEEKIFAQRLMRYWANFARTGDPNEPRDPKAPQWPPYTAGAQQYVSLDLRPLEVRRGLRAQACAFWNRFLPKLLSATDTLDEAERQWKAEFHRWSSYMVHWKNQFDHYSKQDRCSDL

SMILES	IC50 (Acetylcholinesterase) [µM]	IC50 (Bacillus subtilis) [µM]	IC50 at 24 h [1] [µM]	Activity (Candida albicans)	Activity (Xanthomonas campestris)
Oc1cccc2nc3c(O)cccc3nc12	4.52	22	> 50	–	–
Oc1ccc2nc3ccccc3nc2c1	> 50	75	> 50	–	–
O=C(N[C@H](CO)[C@H](O)c1ccc([N+](=O)[O-])cc1)C(Cl)Cl [CHLORAMPHENICOL]	–	1.45	–	–	–
CC(=O)Oc1cccc2nc3c(OC(C)=O)ccc(C/C=C(\C)CCC=C(C)C)c3nc12 [DIACETYLGERANYLPHENAZINEDIOL]	2.01	13	> 50	inactive	inactive
CC(C)=CCc1cccc2nc3cccc(C(=O)O)c3nc12 [ENDOPHENAZINE A]	> 50	111	> 10	–	–
CC(C)=CCc1cc(=O)cc2n(C)c3cccc(C(=O)O)c3nc1-2 [ENDOPHENAZINE B]	> 50	> 150	> 50	–	–
CC(C)=CCC/C(C)=C/Cc1ccc(O)c2nc3cccc(O)c3nc12 [GERANYLPHENAZINEDIOL]	2.62	24	> 50	inactive	inactive
O=C(O)c1cccc2nc3ccccc3nc12 [PHENAZINE-1-CARBOXYLIC ACID]	> 50	> 150	> 50	–	–
CC/C(=C(\c1ccccc1)c1ccc(OCCN(C)C)cc1)c1ccccc1 [TAMOXIFEN]	–	–	23.8	–	–

From ChEMBL document CHEMBL2069170, “Geranylphenazinediol, an acetylcholinesterase inhibitor produced by a Streptomyces species” (J Nat Prod, 2012)
